The conditions of series [1]: given prior to or concomitantly with amino acids, glycine or ammonia; rats; cited from earlier work.
Series [2] relates to breast adenocarcinoma (C3HBA). The following applies: rats; cited from earlier work.
For series [3] the following is noted: dietary arginine, young growing rat; cited from earlier work.
In the next series the test system is allolymphoblasts. Description: Cytotoxic T lymphocyte (CTL) development, 4 hour chromium release, mice on dietary supplement. The format is in vivo, CBA/J mice. The following applies: for CTL cytotoxicity (% toxicity): 1% dietary supplementation at least 10 days, 4 hour chromium release assay, * p,0.05 Student's t test (ARG). Here is the method: (§1) The effect of arginine on IL-2 dependent responses is shown by the following example. The effect of arginine on two IL-2 - dependent responses (T cell activation and cytotoxic T lymphocyte (CTL) development)and on interferon-influenced natural killer (NK) cell activity was evaluated.
(§2) CBA/J mice (n=100) received 1% arginine (ARG) dietary supplementation o isonitrogenous glycine (GLY) for al least 10 days. CTL development was determined by sensitizing mice to BALB/C spleen cell alloantigen in vivo (×3 immunizations) and measuring cytotoxicity against allolymphoblasts as targets. Basal and Poly I:C - induced NK activity was measured against YAC targets. Using indirect immunofluorescence, IL-2 receptor expression (M7/20) on purified splenic T cells was determined 24 and 48 hours after con A activation. Results are presented in Table 1 wherein data are expressed as % toxicity in a 4 hour Chromium release assay (CTL and NK cells only) and % expression (IL-2). (*p,0.05 Student's T test)

For series [4], the system named is C1300 neuroblastoma. As to the kind of experiment: Tumor growth and survival, C1300 neuroblastoma in protein malnourished mice. The format is in vivo, A/J mice. The following applies: for median survival: ARG p<0.001 compared with GLY and LPD (LPD, 29 days).
Protocol: (§3) The effects of supplemental arginine (ARG) in the malnourished tumor bearing host were evaluated. […] Body weight, tumor weight and carcass weight were measured weekly and duration of survival was recorded. On day 10, specific T cell cytotoxicity was measured; concanavalin A (con A) stimulation of thymocytes and mixed lymphocyte tumor cell culture (MLTC) were measured on days 14 (d14) and 21(d21) (n=5/group).
For a further series, the system named is YAC targets. Description: Basal and Poly I:C-induced natural killer (NK) activity, 4 hour chromium release, mice on dietary supplement. Format: in vivo, CBA/J mice. As to conditions: for NK(Induced) activity (% toxicity): Poly I:C-induced, * p,0.05 (ARG); for NK(Induced) activity (% toxicity) / NK(basal) activity (% toxicity): 1% dietary supplementation at least 10 days, YAC targets, 4 hour chromium release. Here is the method:
as §1, §2

The conditions of series [5]: dietary supplement before and/or after wounding, rats; cited from earlier work.
Series [6] concerns C1300 neuroblastoma. As to the kind of experiment: Mixed lymphocyte tumor cell culture (MLTC), C1300 tumor bearing protein malnourished mice. The following applies: for MLTC Stimulation Index (d21): day 21. Format: in vivo, A/J mice.
Protocol: as §3
In the next series the test system is C3HBA tumors. As to conditions: supplemented after tumor excision, cited from earlier work.
For series [7] the following is noted: humans, mainly liver disease; cited from earlier work.
The next series deals with thymus. As to conditions: cited from earlier work.
For another series, the system named is lymphocytes. The following applies: in vitro incubation in media with higher amounts of arginine; cited from earlier work.
A short description of series [8]: Body weight and carcass weight, C1300 tumor bearing protein malnourished mice. As to conditions: for total body weight and mean carcass weight: compared with LPD mice. The format is in vivo, A/J mice.
Protocol: as §3
The test system of the next series is IL-2 receptor. As to the kind of experiment: IL-2 receptor expression (M7/20) on purified splenic T cells after con A activation, indirect immunofluorescence. Format: in vivo, CBA/J mice. As to conditions: for IL 2 (24 hr) receptor expression (% expression): 24 hours after con A activation; for IL 2 (24 hr) receptor expression (% expression) / IL 2 (48 hr) receptor expression (% expression): * p,0.05 (ARG); for IL 2 (48 hr) receptor expression (% expression): 48 hours after con A activation. Here is the method:
as §1, §2

Series [9] relates to C1300 neuroblastoma. The following applies: mouse, in vivo.
Protocol: Body weight, tumor weight and carcass weight were measured weekly and duration of survival was recorded. On day 10, specific T cell cytotoxicity was measured; concanavalin A (con A) stimulation of thymocytes and mixed lymphocyte tumor cell culture (MLTC) were measured on days 14 (d14) and 21(d21) (n=5/group).
A further series concerns thymocytes. As to the kind of experiment: Concanavalin A stimulation of thymocytes, C1300 tumor bearing protein malnourished mice. As to conditions: mean ± SD, * p<0.001, low protein diet + 1% supplement. Format: in vivo, A/J mice.
The conditions of series [10]: 1% in drinking water 6 days after the injury; cited from earlier work.
Series [11] deals with peripheral blood lymphocyte. The following applies: daily oral supplements (30 g), cited from earlier work.
The conditions of series [12]: 30 g daily in divided doses for 1 week, human; cited from earlier work.
For series [13] the following is noted: intraperitoneal, after 24 hour starvation, rats; cited from earlier work.
Setting [14] is: mean ± SD, low protein diet + 1% supplement.

SMILES strings stand for the structures. Bounds are passed on as bounds.

Protocol for thymocytes: as §3

For `N=C(N)NCCC[C@H](N)C(=O)O` [ARG, arginine], the “protection against toxic effects of hyperammonemia” value in series [1] was “abrogated”. In series [2], the tumor appearance entry is “slowed tumor appearance” and the tumor incidence entry was “reducing tumor incidence”. Further, the growth result in series [3] was “more rapid growth”. The “CTL cytotoxicity (% toxicity)” value in the series with allolymphoblasts came to 69 ± 15%. In addition, in the series with allolymphoblasts (supplemental arginine), the “CTL activity, in words” value was “significantly augmented”. In the series with C1300 neuroblastoma [4], this compound registered a median survival of 38 days. Also, the “median survival, in words” value in the series with C1300 neuroblastoma [4] (p<0.001 compared with GLY and LPD mice) is reported as “prolonged”. The tumor growth result with C1300 neuroblastoma [4] (p<0.05, compared with GLY and LPD mice) was “retarded tumor growth”. For the same compound, in the series on YAC targets, the “NK(Induced) activity (% toxicity)” value amounted to 43 ± 12% and the “NK(basal) activity (% toxicity)” value is listed as 19 ± 5%. In addition, the “inducible NK activity, in words” value in the series with YAC targets (supplemental arginine) is recorded as “significantly augmented”. In addition, the wound healing entry in [5] is given as “accelerated”. For the same compound, the “MLTC Stimulation Index (d21)” value in the series on C1300 neuroblastoma [6] (setting [14]) stood at 2.2 ± 1.3. The “immune responses in tumor bearing protein malnourished mice” value in the series on C1300 neuroblastoma [6] (supplemental ARG) is on record as “augmented immune responses”. Also, in the series on C3HBA tumors, the “survival time of mice which subsequently developed tumors” value is “prolonged survival time”. In addition, the tumor recurrence rate in the series on C3HBA tumors (without supplement 100% recurrence) is listed as 30%. For the same compound, in [7], the “therapeutic effect, elevated blood ammonia” value is reported as “ranged from excellent to minimal”. For the same compound, in the series with thymus (in vivo), the “lymphocyte content of the thymic glands” value is given as “significant increases”. Besides, the “thymic involution with injury” value with thymus (injured) was “minimizes the thymic involution”. Besides, the “blastogenesis of the lymphocytes in response to mitogens” value with thymus (thymic) was “significant enhancement”. For the same compound, in the series with thymus (uninjured rats and mice), the thymic weight result is listed as “increases thymic weight”. The “blastogenic responses in vitro” value in the series on lymphocytes is recorded as “does not lead to greater blastogenic responses”. Further, the “total body weight and mean carcass weight” value in [8] was “significantly preserved”. In addition, the host nutritional status entry in [8] (supplemental ARG) is given as “preserved”. Besides, in the series with IL-2 receptor, the “IL 2 (24 hr) receptor expression (% expression)” value is recorded as 52 ± 4% and the “IL 2 (48 hr) receptor expression (% expression)” value amounted to 59 ± 6%. For the same compound, the “IL-2 receptor kinetics, in words” value with IL-2 receptor (supplemental arginine) is reported as “enhanced”.

As to `NCC(=O)O` [GLY, glycine, reference compound], the “CTL cytotoxicity (% toxicity)” value in the series with allolymphoblasts amounted to 54 ± 14%. Also, the median survival in the series with C1300 neuroblastoma [4] came out at 30 days. In the series with YAC targets, the “NK(Induced) activity (% toxicity)” value stood at 24 ± 14% and the “NK(basal) activity (% toxicity)” value is recorded as 13 ± 4%. For the same compound, the “MLTC Stimulation Index (d14)” value with C1300 neuroblastoma [6] (day 14, mean ± SD, * p<0.001, low protein diet + 1% supplement) is recorded as 3.3 ± 0.9. The “MLTC Stimulation Index (d21)” value in the series with C1300 neuroblastoma [6] (setting [14]) was found to be 2.5 ± 0.8. The Cytotoxicity in the series on C1300 neuroblastoma [9] is 15 ± 1.4%. Further, the “ConA Stimulation Index (d21)” value in the series on thymocytes (day 21) is 24.9 ± 5. Also, the “ConA Stimulation Index” value in the series on thymocytes (first ConA column (d14 per text)) turned out to be 38.4 ± 7. The “total body weight and mean carcass weight” value in series [8] is reported as “significantly preserved”. Besides, in the series on IL-2 receptor, the “IL 2 (24 hr) receptor expression (% expression)” value came out at 30 ± 4% and the “IL 2 (48 hr) receptor expression (% expression)” value was 46 ± 45%.

Turning to `Cl.N=C(N)NCCC[C@H](N)C(=O)O` [arginine HCl], in series [10], the recovery is recorded as 100% and the “weight loss after injury” value is given as “reversed the weight loss”. For the same compound, the “peripheral blood lymphocyte blastogenesis” value in series [11] (healthy volunteers) is recorded as “increased”. Besides, the “time until blastogenesis effect is evident” value in [11] is listed as not above 3 days. Further, in [12], the untoward effects entry was “no untoward effects except for mild gastrointestinal discomfort”. Also, the “LD50” value in series [13] is 3800 mg/kg.

Regarding `NC(=O)NCCC[C@H](N)C(=O)O` [citrulline, reference compound], the “protection against toxic effects of hyperammonemia” value in series [1] was “share the "detoxifying" effects of arginine”.

A word on the LD50: it is the dose expected to kill half of the subjects tested.

Values taken from patent US4883661A, “Use of arginine as an lymphokine synergist” (priority 1987, dated 1989).
